From publication PMC11418212, “Characterization of four structurally diverse inhibitors of SUR2-containing KATP channels” (Channels, 2024)
pIC50: −log10 of the molar value. Values joined by “and” are separate entries in the source; they are usually repeats but may differ in a detail not shown here. Equal values may be shown once. “Also recorded” adds a separate entry of the source. Read-outs that look alike come from different tables or passages of the source.

Experiments:
Format in all cases: cell-based
Kir6.1/SUR2B [1] = target: T1, Kir6.1/SUR2B (Homo sapiens, UniProt O60706); test: Whole-cell patch clamp electrophysiology, T-Rex-HEK293-Kir6.1/SUR2B cells; settings: 10 µM compound in continued presence of pinacidil (1 μM in Figure 2)
T1 construct: expressed in transfected cells; Kir6.1 tetracycline-inducible, SUR2B constitutive
T1 sequence (O60706 1-1549 isoform O60706-2, species assumed): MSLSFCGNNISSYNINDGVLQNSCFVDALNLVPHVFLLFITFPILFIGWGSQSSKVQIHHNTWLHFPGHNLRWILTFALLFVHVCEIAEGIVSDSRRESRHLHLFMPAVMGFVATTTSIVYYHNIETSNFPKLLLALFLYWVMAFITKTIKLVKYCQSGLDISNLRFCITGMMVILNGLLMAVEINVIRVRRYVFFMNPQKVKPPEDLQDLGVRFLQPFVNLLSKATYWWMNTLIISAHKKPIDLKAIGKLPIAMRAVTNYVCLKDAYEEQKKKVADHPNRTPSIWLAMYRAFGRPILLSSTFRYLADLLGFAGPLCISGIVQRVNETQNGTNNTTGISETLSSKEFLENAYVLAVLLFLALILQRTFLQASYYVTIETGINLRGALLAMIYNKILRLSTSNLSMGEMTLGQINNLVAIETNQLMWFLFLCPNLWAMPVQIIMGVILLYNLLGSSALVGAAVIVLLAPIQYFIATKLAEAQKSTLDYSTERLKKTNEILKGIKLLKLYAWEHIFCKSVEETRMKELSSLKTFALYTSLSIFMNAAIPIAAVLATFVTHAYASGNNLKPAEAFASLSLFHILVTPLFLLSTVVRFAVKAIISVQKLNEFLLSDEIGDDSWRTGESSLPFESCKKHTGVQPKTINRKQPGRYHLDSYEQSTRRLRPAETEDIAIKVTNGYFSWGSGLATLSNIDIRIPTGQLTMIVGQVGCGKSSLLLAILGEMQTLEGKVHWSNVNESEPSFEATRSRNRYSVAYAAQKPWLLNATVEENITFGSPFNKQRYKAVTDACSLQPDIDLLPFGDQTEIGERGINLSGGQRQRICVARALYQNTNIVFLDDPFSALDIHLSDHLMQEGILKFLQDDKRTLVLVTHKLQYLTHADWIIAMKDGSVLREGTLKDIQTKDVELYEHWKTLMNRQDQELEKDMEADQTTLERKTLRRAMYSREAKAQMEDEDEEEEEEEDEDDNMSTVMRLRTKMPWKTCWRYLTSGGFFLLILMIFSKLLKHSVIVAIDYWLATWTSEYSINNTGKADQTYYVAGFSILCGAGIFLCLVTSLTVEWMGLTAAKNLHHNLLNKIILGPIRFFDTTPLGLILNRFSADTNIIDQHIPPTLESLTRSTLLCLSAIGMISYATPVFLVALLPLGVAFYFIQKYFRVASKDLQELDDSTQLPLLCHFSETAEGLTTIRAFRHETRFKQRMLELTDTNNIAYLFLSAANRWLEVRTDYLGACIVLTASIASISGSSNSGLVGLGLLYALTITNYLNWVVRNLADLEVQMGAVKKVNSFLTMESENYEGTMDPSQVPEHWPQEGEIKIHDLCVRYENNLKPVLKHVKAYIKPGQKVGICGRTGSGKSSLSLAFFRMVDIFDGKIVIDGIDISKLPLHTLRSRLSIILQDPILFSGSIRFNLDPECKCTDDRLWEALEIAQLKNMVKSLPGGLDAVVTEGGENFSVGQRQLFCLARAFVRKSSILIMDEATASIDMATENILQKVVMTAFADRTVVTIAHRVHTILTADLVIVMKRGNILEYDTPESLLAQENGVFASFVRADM
T1 sequence (Q15842 whole entry partner, species assumed): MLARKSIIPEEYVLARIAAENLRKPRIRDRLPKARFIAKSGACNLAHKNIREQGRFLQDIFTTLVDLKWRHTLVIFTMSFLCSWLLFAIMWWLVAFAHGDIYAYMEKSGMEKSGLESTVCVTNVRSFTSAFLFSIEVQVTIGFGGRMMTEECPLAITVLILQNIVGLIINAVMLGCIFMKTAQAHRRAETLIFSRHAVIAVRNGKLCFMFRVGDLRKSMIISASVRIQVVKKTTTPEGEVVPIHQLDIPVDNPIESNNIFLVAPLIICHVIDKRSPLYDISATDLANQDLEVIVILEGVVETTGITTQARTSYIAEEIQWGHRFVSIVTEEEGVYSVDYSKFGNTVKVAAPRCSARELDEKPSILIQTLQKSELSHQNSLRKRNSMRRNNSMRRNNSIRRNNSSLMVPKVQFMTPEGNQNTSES
Experimental: Whole-cell patch clamp electrophysiology experiments were conducted as described previously. Briefly, stably transfected T-Rex-HEK293 cells expressing Kir6.1/SUR2B were seeded at a density of 250,000 cells per 35-mm dish coated with tissue culture-treated polystyrene and incubated at 37°C in a 5% CO2 atmosphere. Whole-cell patch-clamp experiments were initiated 48 h post-seeding. On the day of the experiment, cells were dissociated and seeded onto poly-L-lysine-coated glass coverslips, where they were allowed to recover for at least one hour in a 37°C/5% CO2 incubator prior to the recordings. Patch pipettes with resistances of 2 to 3 MΩ were employed, containing an internal solution composed of 130 mM KCl, 2 mM MgCl2, 1 mM EGTA, 20 mM HEPES-free acid, and 1 mM Na2ADP, adjusted to pH 7.3 with KOH and an osmolarity of 275 mOsmol/kg with sucrose. The extracellular solution consisted of 135 mM NaCl, 5 mM KCl, 2 mM CaCl2, 1 mM MgCl2, 5 mM glucose, and 10 mM HEPES-free acid adjusted to pH 7.4 with NaOH. Test compounds were initially diluted in DMSO before being further diluted into the bath solution, maintaining a final DMSO concentration of less than 0.1% v/v. Recordings of macroscopic currents were conducted in a voltage-clamp setup using an Axopatch 200B Amplifier (Molecular Devices, Sunnyvale, CA), with data sampled at 5 kHz and low-pass filtered at 1 kHz. A ramp protocol was used to generate current–voltage curve relationships. The voltage protocol involved holding the cells at −75 mV, followed by a 200-msec step to −120 mV, a linear ramp to 120 mV over 240 msec at a rate of […], maintaining at 120 mV for 15 msec, and finally stepping back to −120 mV for 100 msec, with this sequence repeated every 5 seconds. […] All data acquisition and analyses were performed using pClamp software version 9.2 (Molecular Devices).
Gold-standard voltage-clamp electrophysiology was used to confirm the inhibitory effects of VU0212387, VU0543336, VU0605768, and VU0544086 on Kir6.1/SUR2B channel activity (Figure 2a–d).
Figure 2. Confirmation of VU0212387, VU0543336, VU0605768, or VU0544086-dependent inhibition of Kir6.1/SUR2B with patch clamp electrophysiology. […] VU compounds tested were (a) VU0212387, (b) VU0543336, (c) VU0605768, or (d) VU0544086. Data mean ± SD current density (n = 3).

Kir6.1/SUR2B [2] = target: T1, Kir6.1/SUR2B; test: Quantitative thallium flux assay, inhibition, stably transfected T-REx-HEK293 cells
Kir6.2/SUR1 = Kir6.2/SUR1 (Homo sapiens, UniProt Q09428); test: as above; settings: for Effect on Kir6.2/SUR1 channel activity: VU0071063 activation or ATP depletion, full range of doses tested (up to 30 µM); for pIC50 / IC50 Kir6.2/SUR1, ATP depletion / IC50 Kir6.2/SUR1, VU0071063 activation: thallium flux; for pIC50 / IC50 Kir6.2/SUR1, ATP depletion: ATP depletion with sodium cyanide and 2-deoxy-glucose; for IC50 Kir6.2/SUR1, VU0071063 activation: in the presence of 10 uM VU0071063
Kir6.2/SUR1, sequence (Q09428 whole entry, species assumed): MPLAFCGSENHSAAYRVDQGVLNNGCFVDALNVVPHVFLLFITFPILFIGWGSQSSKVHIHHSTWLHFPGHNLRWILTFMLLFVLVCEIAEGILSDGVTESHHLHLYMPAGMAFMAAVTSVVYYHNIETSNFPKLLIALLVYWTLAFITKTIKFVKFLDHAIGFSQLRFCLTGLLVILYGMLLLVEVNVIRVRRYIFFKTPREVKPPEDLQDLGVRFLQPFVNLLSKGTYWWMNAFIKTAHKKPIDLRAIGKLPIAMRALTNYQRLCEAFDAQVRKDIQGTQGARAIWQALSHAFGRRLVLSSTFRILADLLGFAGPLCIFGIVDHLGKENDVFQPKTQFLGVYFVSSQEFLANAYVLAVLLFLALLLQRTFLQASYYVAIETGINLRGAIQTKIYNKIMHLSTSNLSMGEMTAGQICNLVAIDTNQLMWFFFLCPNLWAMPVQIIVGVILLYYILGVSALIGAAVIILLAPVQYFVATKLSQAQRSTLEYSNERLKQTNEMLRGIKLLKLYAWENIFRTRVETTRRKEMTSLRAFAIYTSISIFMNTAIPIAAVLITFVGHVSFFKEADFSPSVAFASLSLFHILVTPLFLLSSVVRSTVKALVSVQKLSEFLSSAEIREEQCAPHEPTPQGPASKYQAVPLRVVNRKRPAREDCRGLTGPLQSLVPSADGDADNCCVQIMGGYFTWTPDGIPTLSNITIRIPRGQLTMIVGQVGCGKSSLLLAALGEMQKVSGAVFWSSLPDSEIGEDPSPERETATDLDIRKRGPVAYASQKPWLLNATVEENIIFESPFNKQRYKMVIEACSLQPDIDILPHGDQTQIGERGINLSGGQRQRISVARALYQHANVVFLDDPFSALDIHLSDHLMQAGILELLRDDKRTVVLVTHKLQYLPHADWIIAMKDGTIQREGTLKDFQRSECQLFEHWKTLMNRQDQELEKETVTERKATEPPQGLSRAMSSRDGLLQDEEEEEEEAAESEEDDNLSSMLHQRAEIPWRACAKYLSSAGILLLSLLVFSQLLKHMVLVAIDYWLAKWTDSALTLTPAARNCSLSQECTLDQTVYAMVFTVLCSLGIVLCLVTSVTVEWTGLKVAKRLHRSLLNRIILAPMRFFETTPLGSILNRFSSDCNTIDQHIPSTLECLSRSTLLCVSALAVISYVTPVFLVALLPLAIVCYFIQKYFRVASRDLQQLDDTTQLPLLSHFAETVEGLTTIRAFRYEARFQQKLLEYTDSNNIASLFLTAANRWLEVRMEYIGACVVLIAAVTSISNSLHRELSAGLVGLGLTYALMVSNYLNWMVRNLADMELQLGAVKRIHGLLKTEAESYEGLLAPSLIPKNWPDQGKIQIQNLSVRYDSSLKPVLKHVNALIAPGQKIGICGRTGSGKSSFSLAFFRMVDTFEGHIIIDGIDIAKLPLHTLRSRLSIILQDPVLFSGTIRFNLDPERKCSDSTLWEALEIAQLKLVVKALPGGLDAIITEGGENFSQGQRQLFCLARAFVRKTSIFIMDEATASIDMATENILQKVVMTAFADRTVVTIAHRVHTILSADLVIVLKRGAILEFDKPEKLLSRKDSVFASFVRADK
Kir6.2/SUR1, sequence (Q14654 whole entry partner, species assumed): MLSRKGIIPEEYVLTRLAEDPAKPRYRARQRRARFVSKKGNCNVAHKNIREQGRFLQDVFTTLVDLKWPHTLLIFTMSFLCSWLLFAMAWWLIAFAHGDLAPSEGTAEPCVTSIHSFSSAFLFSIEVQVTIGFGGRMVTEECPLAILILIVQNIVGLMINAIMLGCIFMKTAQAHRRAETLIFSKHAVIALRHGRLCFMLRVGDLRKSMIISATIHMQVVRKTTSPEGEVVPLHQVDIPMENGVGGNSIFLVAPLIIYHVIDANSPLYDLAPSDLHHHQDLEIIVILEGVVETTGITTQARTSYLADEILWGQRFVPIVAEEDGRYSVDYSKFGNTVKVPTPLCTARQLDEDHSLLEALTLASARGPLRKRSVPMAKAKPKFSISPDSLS
Experimental: Briefly, T-Rex-HEK293 cells underwent co-transfection with pcDNA5/TO-Kir6.1 or pcDNA5/TO-Kir6.2 (inducible expression) and pcDNA3.1-SUR2B or pcDNA3.1-SUR1 (constitutive expression) using Lipofectamine LTX following the manufacturer’s instructions and were then subjected to selection with antibiotics. Monoclonal cell lines were established through limiting dilution and characterization in thallium flux assays described below. […] KATP channel selectivity assays were performed in HEK293 cells transiently transfected with the indicated subunit using Lipofectamine LTX. The cells were incubated for 48 h after transfection before performing thallium flux assays.
Thallium flux assays were conducted using the established methods. Stably transfected T-REx-HEK-293 cells expressing Kir6.2/SUR1 or Kir6.1/SUR2B were cultured overnight in polyamine-coated plates (black-walled, clear-bottomed; BD, Bedford, MA) at a density of 20,000 cells in 20 µl per well of cell culture media. The expression of Kir6.2/SUR1 or Kir6.1/SUR2B channels was induced by treating cells with 1 µg/ml tetracycline overnight. The following day, cells were rinsed with an assay buffer (Hanks’ Balanced Salt Solution supplied with 20 mM HEPES), loaded with the thallium-sensor dye Brilliant Thallos-AM AM (Ion Bioscience, San Marcos, TX) for 1 h, and then washed again with assay buffer to remove unincorporated dye. […] To activate KATP channels independent of activators with ATP-depletion method, cells were treated with a cocktail of metabolic inhibitors (2.5 mM sodium cyanide and 20 mM 2-deoxy glucose) for 25 min before imagine. Control and test compounds diluted freshly from DMSO stocks into assay buffer were added to wells for four minutes before adding 0.5 mM chloride-free thallium stimulus buffer (Ion Bioscience) to initiate thallium flux through the expressed KATP channels. Thallium flux was recorded from all 384-wells for 2 min before terminating the experiment. […] Selectivity assays against other Kir channels were performed as described previously.
The kinetic fluorescence measurements (F) from each well were normalized to the initial reading (F0), producing static ratios (F/F0) that adjust for variations in cell count and dye uptake. […] The response (maxmin2) was determined by subtracting the min value from the max value. Percent inhibition was calculated by normalizing each well’s response to the positive and negative controls. Concentration–response curves were fitted using a single-site, four-parameter logistic function in Prism version 4.0 (GraphPad Software Inc., San Diego, CA) to calculate the half-maximal inhibitory concentration (IC50). Statistical comparisons of IC50 values were performed using an extra sum-of-squares F test and the Mann–Whitney test. A p-value of less than 0.05 was considered statistically significant.

[3] = ATP depletion with sodium cyanide and 2-deoxy-glucose, read-out: IC50 Kir6.1/SUR2B, ATP depletion
[4] = channels activated with 10 µM pinacidil, read-out: IC50 Kir6.1/SUR2B, pinacidil activation

SMILES	Inhibition of Kir6.1/SUR2B whole-cell current (Kir6.1/SUR2B [1])	pIC50 (Kir6.1/SUR2B [2]; [3])	pIC50 (Kir6.1/SUR2B [2]; [4])	Effect on Kir6.2/SUR1 channel activity (Kir6.2/SUR1)	pIC50 (Kir6.2/SUR1)	IC50 Kir6.2/SUR1, ATP depletion (Kir6.2/SUR1)	IC50 Kir6.2/SUR1, VU0071063 activation (Kir6.2/SUR1)
c1ccc2[nH]c(CSc3ncnc4c3oc3ccccc34)nc2c1 [VU0212387, 4-(((1 H-benzo[d]imidazol-2-yl)methyl)thio)benzofuro[3,2-d]pyrimidine]	complete KATP channel inhibition	6.21 and 6.22	5.85	no apparent inhibitory activity; also recorded: no effect	< 4.52	no fit	no fit
O=C(NCC(O)(c1ccccc1)C(F)(F)F)c1ccc(OC(F)(F)F)cc1 (stereo not shown) [VU0543336, N-(3,3,3-trifluoro-2-hydroxy-2-phenylpropyl)-4-(trifluoromethoxy)benzamide]	complete KATP channel inhibition	6.90 and 7.00	6.57 and 6.52	no apparent inhibitory activity; also recorded: no effect	< 4.52	no fit	no fit
O=C(NCc1cc(-c2ccncc2)n(C2CCCC2)n1)Nc1cccs1 [VU0544086, 1-((1-cyclopentyl-5-(pyridin-4-yl)-1 H-pyrazol-3-yl)methyl)-3-(thiophen-2-yl)urea]	complete KATP channel inhibition	6.00	6.00	no apparent inhibitory activity; also recorded: no effect	< 4.52	no fit	no fit
O=C1c2oc3ccccc3c(=O)c2C(c2cccc(Br)c2)N1CCO (stereo not shown) [VU0605768, 1-(3-bromophenyl)-2-(2-hydroxyethyl)-1,2-dihydrochromeno[2,3-c]pyrrole-3,9-dione]	complete KATP channel inhibition	6.11	6.32	no apparent inhibitory activity; also recorded: no effect	< 4.52	no fit	no fit
